Experimental data taken from ChEMBL document CHEMBL1146594, “The leupyrrins: a structurally unique family of secondary metabolites from the myxobacterium Sorangium cellulosum” (J Nat Prod, 2003).
In brackets after ≈: the same amount, converted by molar mass. Activity calls are given as the source filed them. The rule behind the calls is not given here.

What was measured:
Rhodotorula glutinis [1] = assay: Antifungal activity against Rhodotorula glutinis; format: functional
L929 = assay: Cytotoxicity against mouse L929 cells; format: cell-based
Candida albicans = assay: Antifungal activity against Candida albicans; format: functional
Aspergillus niger = assay: Antifungal activity against Aspergillus niger; format: functional
Rhodotorula glutinis [2] = assay: Inhibition of RNA synthesis in Rhodotorula glutinis assessed as inhibition of [2-14C]uracil incorporation at 2.5 ug/mL after 30 mins; format: functional, organism-based
Rhodotorula glutinis [3] = assay: Inhibition of DNA synthesis in Rhodotorula glutinis assessed as inhibition of [methyl-3H]thymine incorporation at 2.5 ug/mL after 30 mins; format: functional, organism-based
Rhodotorula glutinis [4] = assay: Inhibition of protein synthesis in Rhodotorula glutinis assessed as inhibition of [U-14C]protein hydrolysate incorporation at 2.5 ug/mL after 30 mins; format: functional, organism-based
Mucor hiemalis = assay: Antifungal activity against Mucor hiemalis; format: functional
Botrytis cinerea = assay: Antifungal activity against Botrytis cinerea; format: functional

COCCC/C(C)=C1\COC(CC(C)C)\C1=C/C1N=C2OC1COC(=O)[C@@H](CC(C)C)CC(=O)OC1C(OC(=O)C1(C)CO)/C(C)=C/Cc1ccc2[nH]1 (some centres undefined) [LEUPYRRIN A1]
MIC (Rhodotorula glutinis [1]): 0.25 µg/mL (≈ 0.338 µM) | IC50 (L929): 1 µg/mL (≈ 1.35 µM) | MIC (Candida albicans): > 25 µg/mL | MIC (Aspergillus niger): 0.8 µg/mL (≈ 1.08 µM) | Activity (Rhodotorula glutinis [2]): Active | Activity (Rhodotorula glutinis [3]): Active | Activity (Rhodotorula glutinis [4]): Active | MIC (Mucor hiemalis): 0.3 µg/mL (≈ 0.406 µM) | MIC (Botrytis cinerea): 0.8 µg/mL (≈ 1.08 µM)
